The source of these data is patent publication US20060009493A1, “Indolinone hydrazides as c-Met inhibitors” (Sugen, Inc., priority 2003, published 2006).

In this test the target is T1, GST fusion protein containing the Met kinase domain (Homo sapiens, UniProt P08581).
T1 construct: Purified GST fusion protein containing the Met kinase domain, Sugen, Inc
T1 sequence (P08581 1078-1345 limits assumed): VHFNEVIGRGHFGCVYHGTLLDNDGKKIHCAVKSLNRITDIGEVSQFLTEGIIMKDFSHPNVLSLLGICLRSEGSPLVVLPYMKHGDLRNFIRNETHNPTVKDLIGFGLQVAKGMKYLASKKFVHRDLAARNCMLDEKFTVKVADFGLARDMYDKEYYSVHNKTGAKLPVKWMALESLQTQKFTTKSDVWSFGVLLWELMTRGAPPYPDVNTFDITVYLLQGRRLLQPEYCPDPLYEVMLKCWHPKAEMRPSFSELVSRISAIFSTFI
Nature of the test: MET Transphosphorylation Assay (ELISA, poly(Glu,Tyr) 4:1 substrate). The format is biochemical. The conditions noted are these: met transphosphorylation of poly(glutamic acid:tyrosine 4:1) substrate; two values in a cell separated by '/'. A digest of the protocol:
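Poly(Glu-Tyr)-coated wells received the GST-Met kinase domain (10 ng/well) with compound in DMSO for 15 minutes. The reaction was started with ATP/MnCl2 in HEPES pH 7.5 buffer with vanadate, run 5 minutes, and stopped with EDTA. Phosphotyrosine was detected by anti-pTyr antibody, HRP secondary and ABTS/H2O2.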
Background: In an ELISA, binding on a coated surface is turned into a signal by an enzyme label.
With `COc1ccc(CC(=O)N/N=C2\C(=O)Nc3c(Cl)ccc(Cl)c32)cc1C` [II-70, (4-Methoxy-3-methyl-phenyl)-acetic acid [(3Z)-4,7-dichloro-2-oxo-1,2-dihydro-indol-3-ylidene]-hydrazide], the IC50 is over 20000 nM. `O=C(Cn1ccc(=O)[nH]c1=O)N/N=C1\C(=O)Nc2ccccc21` [II-71, (2,4-Dioxo-3,4-dihydro-2H-pyrimidin-1-yl)-acetic acid [(3Z)-2-oxo-1,2-dihydro-indol-3-ylidene]-hydrazide] displayed an IC50 of over 20000 nM. In the case of `O=C(Cn1ccc(=O)[nH]c1=O)N/N=C1\C(=O)Nc2c(Cl)ccc(Cl)c21` [II-72, (2,4-Dioxo-3,4-dihydro-2H-pyrimidin-1-yl)-acetic acid [(3Z)-4,7-dichloro-2-oxo-1,2-dihydro-indol-3-ylidene]-hydrazide] it was over 20000 nM; in that of `Cc1cn(CC(=O)N/N=C2\C(=O)Nc3ccccc32)c(=O)[nH]c1=O` [II-73, (5-Methyl-2,4-dioxo-3,4-dihydro-2H-pyrimidin-1-yl)-acetic acid [(3Z)-2-oxo-1,2-dihydro-indol-3-ylidene]-hydrazide], over 20000 nM. For the compound `Cc1cn(CC(=O)N/N=C2\C(=O)Nc3c(Cl)ccc(Cl)c32)c(=O)[nH]c1=O` [II-74, (5-Methyl-2,4-dioxo-3,4-dihydro-2H-pyrimidin-1-yl)-acetic acid [(3Z)-4,7-dichloro-2-oxo-1,2-dihydro-indol-3-ylidene]-hydrazide], the IC50 was over 20000 nM.

As for `O=C(Cc1ccccc1)N/N=C1\C(=O)Nc2c(Cl)ccc(Cl)c21` [II-75, Phenyl-acetic acid [(3Z)-4,7-dichloro-2-oxo-1,2-dihydro-indol-3-ylidene]-hydrazide], the IC50 turned out to be 90 nM. As for `O=C(CCc1ccc(O)cc1)N/N=C1\C(=O)Nc2c(Cl)ccc(Cl)c21` [II-76, 3-(4-Hydroxy-phenyl)-propionic acid [(3Z)-4,7-dichloro-2-oxo-1,2-dihydro-indol-3-ylidene]-hydrazide], half-maximal inhibition (IC50) was put at 46 nM. In the case of `CC(C(=O)N/N=C1\C(=O)Nc2c(Cl)ccc(Cl)c21)c1ccc(O)cc1` (centres unmarked) [II-77, 2-(4-Hydroxy-phenyl)-propionic acid [(3Z)-4,7-dichloro-2-oxo-1,2-dihydro-indol-3-ylidene]-hydrazide] it was 15 nM; in that of `Nc1cccc(CC(=O)N/N=C2\C(=O)Nc3c(Cl)ccc(Cl)c32)c1` [II-78, (3-Amino-phenyl)-acetic acid [(3Z)-4,7-dichloro-2-oxo-1,2-dihydro-indol-3-ylidene]-hydrazide], 110 nM. Turning to `CCC(C(=O)N/N=C1\C(=O)Nc2c(Cl)ccc(Cl)c21)c1ccc(OC)cc1` (centres unmarked) [II-79, 2-(4-Methoxy-phenyl)-butyric acid [(3Z)-4,7-dichloro-2-oxo-1,2-dihydro-indol-3-ylidene)-hydrazide], inhibition was half-maximal at 150 nM (IC50). On to `O=C(Cc1cc(=O)[nH]c(=O)[nH]1)N/N=C1\C(=O)Nc2ccccc21` [II-80, (2,6-Dioxo-1,2,3,6-tetrahydro-pyrimidin-4-yl)-acetic acid [(3Z)-2-oxo-1,2-dihydro-indol-3-ylidene)-hydrazide], for which the IC50 was over 20000 nM. In turn, `Cc1ccc(C)c2c1NC(=O)/C2=N\NC(=O)CCc1ccc(O)cc1` [II-81, 3-(4-Hydroxy-phenyl)-propionic acid [(3Z)-4,7-dimethyl-2-oxo-1,2-dihydro-indol-3-ylidene]-hydrazide] came in with an IC50 of 59 nM. In the case of `O=C(Cc1cc(=O)[nH]c(=O)[nH]1)N/N=C1\C(=O)Nc2c(Cl)ccc(Cl)c21` [II-82, (2,6-Dioxo-1,2,3,6-tetrahydro-pyrimidin-4-yl)-acetic acid [(3Z)-4,7-dichloro-2-oxo-1,2-dihydro-indol-3-ylidene]-hydrazide] it was over 20000 nM; in that of `O=C(CCc1ccc(O)cc1)N/N=C1\C(=O)Nc2cccc(Cl)c21` [II-83, 3-(4-Hydroxy-phenyl)-propionic acid [(3Z)-4-chloro-2-oxo-1,2-dihydro-indol-3-ylidene]-hydrazide], 81 nM. `O=C(CCc1ccccc1)N/N=C1\C(=O)Nc2c(Cl)ccc(Cl)c21` [II-84, 3-Phenyl-propionic acid [(3Z)-4,7-dichloro-2-oxo-1,2-dihydro-indol-3-ylidene]-hydrazide] registered an IC50 of over 20000 nM. In the case of `Cc1ccc(C)c2c1NC(=O)/C2=N\NC(=O)Cc1ccccc1` [II-85, Phenyl-acetic acid [(3Z)-4,7-dimethyl-2-oxo-1,2-dihydro-indol-3-ylidene]-hydrazide] it was 91 nM; in that of `COc1ccc(CCC(=O)N/N=C2\C(=O)Nc3c(Cl)ccc(Cl)c32)cc1` [II-86, 3-(4-Methoxy-phenyl)-propionic acid [(3Z)-4,7-dichloro-2-oxo-1,2-dihydro-indol-3-ylidene]-hydrazide], 2000 nM.

`O=C(Cc1cc(O)[nH]n1)N/N=C1\C(=O)Nc2c(Cl)ccc(Cl)c21` [II-87, (5-Hydroxy-1H-pyrazol-3-yl)-acetic acid [(3Z)-4,7-dichloro-2-oxo-1,2-dihydro-indol-3-ylidene]-hydrazide] yielded an IC50 of 630 nM. Regarding `O=C(Cc1cc(=O)[nH]cn1)N/N=C1\C(=O)Nc2ccccc21` [II-88, (6-Oxo-1,6-dihydro-pyrimidin-4-yl)-acetic acid [(3Z)-2-oxo-1,2-dihydro-indol-3-ylidene]-hydrazide], the IC50 worked out at 5990 nM.

Take `O=C(Cc1cnc(=O)[nH]c1)N/N=C1\C(=O)Nc2ccccc21` [II-89, (2-Oxo-1,2-dihydro-pyrimidin-5-yl)-acetic acid [(3Z)-2-oxo-1,2-dihydro-indol-3-ylidene]-hydrazide]: 12600 nM corresponded to half-maximal inhibition (IC50). `O=C(Cc1c[nH]c(=O)[nH]c1=O)N/N=C1\C(=O)Nc2ccccc21` [II-90, (2,4-Dioxo-1,2,3,4-tetrahydro-pyrimidin-5-yl)-acetic acid [(3Z)-2-oxo-1,2-dihydro-indol-3-ylidene]-hydrazide] came in with an IC50 of over 20000 nM. Next, `CC(C)(C(=O)N/N=C1\C(=O)Nc2c(Cl)ccc(Cl)c21)c1ccc(Cl)cc1` [II-91, 2-(4-Chloro-phenyl)-2-methyl-propionic acid [(3Z)-4,7-dichloro-2-oxo-1,2-dihydro-indol-3-ylidene]-hydrazide]: over 20000 nM. In the case of `CC(C)(C(=O)N/N=C1\C(=O)Nc2ccc(C(=O)O)c(Cl)c21)c1ccc(Cl)cc1` [II-92, (3Z)-4-Chloro-3-{[2-(4-chloro-phenyl)-2-methyl-propionyl]-hydrazono}-2-oxo-2,3-dihydro-1H-indole-5-carboxylic acid] it was over 20000 nM. `Cc1ccc(C)c2c1NC(=O)/C2=N\NC(=O)CCc1ccc(N)cc1` [II-93, 3-(4-Amino-phenyl)-propionic acid [(3Z)-4,7-dimethyl-2-oxo-1,2-dihydro-indol-3-ylidene]-hydrazide] yielded an IC50 of over 20000 nM. `COc1ccc2c(c1Cl)/C(=N/NC(=O)Cc1ccc(O)cc1)C(=O)N2` [II-94, (4-Hydroxy-phenyl)-acetic acid [(3Z)-4-chloro-5-methoxy-2-oxo-1,2-dihydro-indol-3-ylidene]-hydrazide]: the IC50 came out at 21 nM. That is a double-digit nanomolar value. With `COc1cc(Cl)c2c(c1Cl)/C(=N/NC(=O)Cc1ccc(O)cc1)C(=O)N2` [II-95, (4-Hydroxy-phenyl)-acetic acid [(3Z)-4,7-dichloro-5-methoxy-2-oxo-1,2-dihydro-indol-3-ylidene]-hydrazide], the IC50 was 32 nM. `O=C(Cc1cnc(=O)[nH]c1)N/N=C1\C(=O)Nc2c(Cl)ccc(Cl)c21` [II-96, (2-Oxo-1,2-dihydro-pyrimidin-5-yl)-acetic acid [(3Z)-4,7-dichloro-2-oxo-1,2-dihydro-indol-3-ylidene]-hydrazide] returned an IC50 of 3080 nM.

`COc1c(O)c2c(c(Cl)c1Cl)NC(=O)/C2=N\NC(=O)Cc1ccc(O)cc1` [II-97, (4-Hydroxy-phenyl)-acetic acid [(3Z)-6,7-dichloro-4-hydroxy-5-methoxy-2-oxo-1,2-dihydro-indol-3-ylidene]-hydrazide] yielded an IC50 of 320 nM. `COc1ccc2c(c1)/C(=N/NC(=O)Cc1ccc(O)cc1)C(=O)N2` [II-98, (4-Hydroxy-phenyl)-acetic acid [(3Z)-5-methoxy-2-oxo-1,2-dihydro-indol-3-ylidene]-hydrazide] showed an IC50 of 89 nM. `COc1ccc2c(c1Cl)/C(=N/NC(=O)C(C)c1ccc(O)cc1)C(=O)N2` (centres unmarked) [II-99, 2-(4-Hydroxy-phenyl)-propionic acid [(3Z)-4-chloro-5-methoxy-2-oxo-1,2-dihydro-indol-3-ylidene)-hydrazide] gave an IC50 of 45 nM.

The compound `COc1cc(CC(=O)N/N=C2\C(=O)Nc3c(Cl)ccc(Cl)c32)cc(OC)c1O` [II-100, (4-Hydroxy-3,5-dimethoxy-phenyl)-acetic acid [(3Z)-4,7-dichloro-2-oxo-1,2-dihydro-indol-3-ylidene)-hydrazide] returned an IC50 of over 20000 nM. With `O=C(Cc1ccc(O)c(Br)c1)N/N=C1\C(=O)Nc2ccccc21` [II-101, (3-Bromo-4-hydroxy-phenyl)-acetic acid [(3Z)-2-oxo-1,2-dihydro-indol-3-ylidene]-hydrazide], half-maximal inhibition (IC50) was put at 54 nM. `O=C(Cc1ccc(O)c(Br)c1)N/N=C1\C(=O)Nc2c(Cl)ccc(Cl)c21` [II-102, (3-Bromo-4-hydroxy-phenyl)-acetic acid [(3Z)-4,7-dichloro-2-oxo-1,2-dihydro-indol-3-ylidene]-hydrazide] registered an IC50 of 190 nM. Compound `CC(C(=O)N/N=C1\C(=O)Nc2ccccc21)c1ccc(O)c(Br)c1` (centres unmarked) [II-103, 2-(3-Bromo-4-hydroxy-phenyl)-propionic acid [(3Z)-2-oxo-1,2-dihydro-indol-3-ylidene]-hydrazide] registered an IC50 of 180 nM.

`CC(C(=O)N/N=C1\C(=O)Nc2c(Cl)ccc(Cl)c21)c1ccc(O)c(Br)c1` (centres unmarked) [II-104, 2-(3-Bromo-4-hydroxy-phenyl)-propionic acid [(3Z)-4,7-dichloro-2-oxo-1,2-dihydro-indol-3-ylidene]-hydrazide] had an IC50 of 790 nM.

A word on the IC50: it is the concentration that gives 50% inhibition.
